Key:
[1] = test system: Farnesyl pyrophosphate synthase (Geobacillus stearothermophilus); assay: Percent inhibition against prenyltransferases of farnesyl diphosphate synthase (FPS) at concentration of 125 uM
[2] = test system: Geobacillus stearothermophilus; assay: Percent inhibition against prenyltransferases of Undecaprenyl pyrophosphate synthetase (UPS) at concentration of 125 uM
[3] = Activity as substrate for Hex PS relative to control; type: functional
Micrococcus luteus [4] = assay: Percent inhibition against prenyltransferases of hexaprenyl diphosphate synthase (Hex PS) at concentration of 50 uM
[5] = test system: Geobacillus stearothermophilus; assay: Percent inhibition against prenyltransferases of Undecaprenyl pyrophosphate synthetase (UPS) at concentration of 16 uM
[6] = test system: Geobacillus stearothermophilus; assay: Percent inhibition against prenyltransferases of Undecaprenyl pyrophosphate synthetase (UPS) at concentration of 32 uM
Micrococcus luteus [7] = assay: Percent inhibition against prenyltransferases of hexaprenyl diphosphate synthase (Hex PS) at concentration of 125 uM
Micrococcus luteus [8] = assay: Percent inhibition against prenyltransferases of hexaprenyl diphosphate synthase (Hex PS) at concentration of 250 uM
[9] = Activity as substrate for FPS relative to control; type: functional
[10] = test system: Farnesyl pyrophosphate synthase (Geobacillus stearothermophilus); assay: Percent inhibition against prenyltransferases of farnesyl diphosphate synthase (FPS) at concentration of 250 uM
[11] = Activity at concentration of 250 uM relative to HexPS for 5 min; type: functional
[12] = Activity at concentration of 714 uM relative to FPS for 30 min; type: functional
[13] = Activity at concentration of 250 uM relative to HexPS for 15 min; type: functional
[14] = Activity at concentration of 357 uM relative to FPS for 60 min; type: functional
[15] = Activity at concentration of 125 uM relative to HexPS for 5 min; type: functional
[16] = Activity as substrate for UPS relative to control; type: functional
[17] = test system: Farnesyl pyrophosphate synthase (Geobacillus stearothermophilus); assay: Percent inhibition against prenyltransferases of farnesyl diphosphate synthase (FPS) at concentration of 50 uM
[18] = Activity at concentration of 1428 uM relative to FPS for 30 min; type: functional
[19] = Activity at concentration of 125 uM relative to HexPS for 15 min; type: functional
[20] = Activity at concentration of 357 uM relative to FPS for 30 min; type: functional
[21] = Activity at concentration of 357 uM relative to FPS for 120 min; type: functional
[22] = test system: Farnesyl pyrophosphate synthase (Geobacillus stearothermophilus); assay: Percent inhibition against farnesyl diphosphate synthase (FPS) at concentration of 250 uM

SMILES	inhibition [1] [%]	inhibition [2] [%]	Relative activity [3]	inhibition (Micrococcus luteus [4]) [%]	inhibition [5] [%]	inhibition [6] [%]	inhibition (Micrococcus luteus [7]) [%]	inhibition (Micrococcus luteus [8]) [%]	Relative activity [9]	inhibition [10] [%]	Relative activity [11]	Relative activity [12]	Relative activity [13]	Relative activity [14]	Relative activity [15]	Relative activity [16]	inhibition [17] [%]	Relative activity [18]	Relative activity [19]	Relative activity [20]	further results
C/C(=C\COP(=O)(O)OP(=O)(O)O)COc1ccc(C(=O)c2ccccc2)cc1	24.5	57	5.7	8.8	12.5	17.5	23.4	37	0.06	27.6											
C/C(=C\COP(=O)(O)OP(=O)(O)O)CC/C=C(\C)COc1ccc(C(=O)c2ccccc2)cc1	94.4	63	46.4	14.4	29	53	49.5	86.4	0.78	95.5	9.8	64.4	4.3	48.1	30.7	49.1	84.4	36.2	9.2	67.3	Relative activity [21]: 17
C/C(=C\COP(=O)(O)OP(=O)(O)O)CC/C=C(\C)COc1cccc(C(=O)c2ccccc2)c1	94.9	63	21.6	9.2	38	58	37	80.5	1.83	96.1	5.5	61.2	1.9	66.6	32.5	55.7	86	75.9	10.8	62.2	Relative activity [21]: 37
C/C(=C\COP(=O)(O)OP(=O)(O)O)COc1cccc(C(=O)c2ccccc2)c1	14.6	68	0	3.1	12.5	22.5	3.5	10.6	0.22												inhibition [22]: 19.8%

From ChEMBL document CHEMBL1130495, “Benzoylphenoxy analogs of isoprenoid diphosphates as photoactivatable substrates for bacterial prenyltransferases” (Bioorg Med Chem Lett, 1997)
